Assay results from US20260250250A1, “3-(SULPHONYL OR SULFONIMIDOYL)PROP-2-EN-1-YL]-2-OXO-1,2-DIHYDROPYRIDINE-3-CARBOXAMIDE DERIVATIVES” (Flinder Therapeutics B.V., priority 2022, published 2026).

Key:
[1] = biological target: T1, human E3 ubiquitin-protein ligase RNF31 (HOIP) (Homo sapiens, UniProt Q96EP0); assay: Cell-free HTRF-based HOIP inhibition assay; format: biochemical
T1 sequence (Q96EP0 695-1072 limits assumed): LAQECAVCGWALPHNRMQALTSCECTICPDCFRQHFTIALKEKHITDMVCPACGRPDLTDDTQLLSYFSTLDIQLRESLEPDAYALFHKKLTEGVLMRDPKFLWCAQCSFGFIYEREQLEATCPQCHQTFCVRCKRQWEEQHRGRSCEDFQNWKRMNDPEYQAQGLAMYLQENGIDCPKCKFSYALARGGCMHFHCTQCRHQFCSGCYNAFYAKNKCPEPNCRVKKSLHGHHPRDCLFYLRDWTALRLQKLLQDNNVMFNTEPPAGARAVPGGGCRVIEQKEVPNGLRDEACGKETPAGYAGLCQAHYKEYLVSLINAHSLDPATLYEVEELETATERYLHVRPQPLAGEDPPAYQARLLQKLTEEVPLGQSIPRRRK
Protocol: This assay was performed in the following steps: • a) synthesis of recombinant fragment of human E3 ubiquitin-protein ligase RNF31 (HOIP), expressed with purity >90% in E. coli system (the protein was prepared as 1 mg/mL stock in a standard formulation); • b) incubation of the compounds in a typical concentration range: 100-0.005 μM, at a final DMSO conc. 1% with a mixture of HOIP and ubiquitin activating enzyme E1 at 25° C., for 1 h at 25° C.; • c) followed by addition of a ubiquitination solution including E2 and substrates (the reaction proceeds for 2.5 h at 25° C.); and • d) HTRF detection was performed using a PHERAstar FSX (BMG Labtech) plate reader (excitation at 337 nm, dual emissions at 665 and 620 nm).

NF-κB signaling pathway = assay: Cell-based dual luciferase NF-κB reporter assay (HEK293 cells, TNF stimulated); details: Homo sapiens, HEK293
Protocol: Dual-luciferase reporter assay was designed to find inhibitors of HOIP affecting NF-κB signaling pathway. The assay was performed in HEK293 cells which were transfected with plasmids coding for Firefly and NanoLuc luciferases. The NanoLuc luciferase plasmid contains NF-κB response element which determines its expression.
The assay was run following standard dual-luciferase protocols. The assay consists of a few steps: • compounds were dispensed at a concentration range: 100-0.005 μM with a final DMSO concentration of 1% of final volume (25 μL); • cells were stimulated after 30 min with 2.5 ng/mL TNF; and • after 6 h Firefly and NanoLuc luciferase activities are determined according to the procedure described by the manufacturer of Nano-Glo Dual-Luciferase Reporter Assay System.

[2] = system: bladder carcinoma RT4 cell line; assay: TNF-α-induced cytotoxicity assay (CellTiter-Glo viability); format: cell-based; details: Homo sapiens, RT-4, 72 h
Protocol: A viability assay, using bladder carcinoma RT4 cell line, was used for identifying the potential inhibitory effect of tested compounds on HOIP activity. The viability was determined by CellTiter-Glo Luminescent Cell Viability Assay (G7571, Promega) which measures the ability of generating a luminescent signal proportional to the amount of ATP present in living cells. The assay consists of a few steps: • a) the cells were routinely sub cultivated twice a week with standard complete growth medium composition; • b) cells were preparated for the assay by creating a cell suspension at the density of 0.05 mln cells/mL and dispensed into plates (ViewPlate-384, PerkinElmer) resulting in 1000 cells/well; • c) cells were stimulated with 1.25 ng/mL TNFα and with compounds and incubated for 72 h at 37° C. in the atmosphere with 5% CO2; and • d) for detection cytotoxicity was measured with CellTiter-Glo® Luminescent Cell Viability Assay based on the method described by the manufacturer.

Compound | IC50 [1] | IC50 (NF-κB signaling pathway) | IC50 [2]
CC(C)(C)c1ccc(S(=O)(=O)/C=C/CNC(=O)c2cc3c([nH]c2=O)CCCC3)cc1 [Example 50, N-[(2E)-3-(4-tert-butylbenzenesulfonyl)prop-2-en-1-yl]-2-oxo-1,2,5,6,7,8-hexahydroquinoline-3-carboxamide] | ≤ 10000 nM | ≤ 10000 nM | –
N#Cc1cc(S(=N)(=O)/C=C/CNC(=O)c2cc3c([nH]c2=O)CCCC3)ccc1N1CCOCC1 (stereo not drawn) [Example 175, N-[(2E)-3-{[3-cyano-4-(morpholin-4-yl)phenyl](imino)oxo-λ^6-sulfanyl}prop-2-en-1-yl]-2-oxo-1,2,5,6,7,8-hexahydroquinoline-3-carboxamide] | ≤ 100 nM | – | ≤ 10000 nM
N=S(=O)(/C=C/CNC(=O)c1cc2c([nH]c1=O)CCCC2)c1ccc2c(c1)CCO2 (stereo not drawn) [Example 167, N-[(2E)-3-[(2,3-dihydro-1-benzofuran-5-yl)(imino)oxo-λ^6-sulfanyl]Prop-2-en-1-yl]-2-oxo-1,2,5,6,7,8-hexahydroquinoline-3-carboxamide] | ≤ 1000 nM | – | ≤ 1000 nM
COc1ccc(S(=N)(=O)/C=C/CNC(=O)c2cc3cccnc3[nH]c2=O)cc1F (stereo not drawn) [Example 158, N-[(2E)-3-[(3-fluoro-4-methoxyphenyl)(imino)oxo-λ^6-sulfanyl]prop-2-en-1-yl]-2-oxo-1,2-dihydro-1,8-naphthyridine-3-carboxamide] | ≤ 1000 nM | – | ≤ 10000 nM
CN(C)c1cccc(S(=N)(=O)/C=C/CNC(=O)c2cc3c([nH]c2=O)CCCC3)c1 (stereo not drawn) [Example 165, N-[(2E)-3-{[3-(dimethylamino)phenyl](imino)oxo-λ^6-sulfanyl}prop-2-en-1-yl]-2-oxo-1,2,5,6,7,8-hexahydroquinoline-3-carboxamide] | ≤ 1000 nM | – | ≤ 1000 nM
N#Cc1cc(S(=N)(=O)/C=C/CNC(=O)c2cc3c([nH]c2=O)CCCC3)ccc1N1CCCCC1 (stereo not drawn) [Example 173, N-[(2E)-3-{[3-cyano-4-(piperidin-1-yl)phenyl](imino)oxo-λ^6-sulfanyl}prop-2-en-1-yl]-2-oxo-1,2,5,6,7,8-hexahydroquinoline-3-carboxamide] | ≤ 100 nM | – | ≤ 1000 nM
COc1ccc(S(=N)(=O)/C=C/CNC(=O)c2cc3c([nH]c2=O)CCN(C(=O)OC2CCCCC2)C3)cc1F (stereo not drawn) [Example 184, cyclohexyl 3-{[(2E)-3-[(3-fluoro-4-methoxyphenyl)(imino)oxo-λ^6-sulfanyl]prop-2-en-1-yl]carbamoyl}-2-oxo-1,2,5,6,7,8-hexahydro-1,6-naphthyridine-6-carboxylate] | ≤ 100 nM | – | ≤ 1000 nM
CC(=O)Nc1ccc(S(=N)(=O)/C=C/CNC(=O)c2cc3c([nH]c2=O)CCCC3)cc1 (stereo not drawn) [Example 163, N-[(2E)-3-[(4-acetamidophenyl)(imino)oxo-λ^6-sulfanyl]prop-2-en-1-yl]-2-oxo-1,2,5,6,7,8-hexahydroquinoline-3-carboxamide] | ≤ 1000 nM | – | ≤ 100000 nM
N=S(=O)(/C=C/CNC(=O)c1cc2c([nH]c1=O)CCCC2)c1ccc(-c2ccccc2)cc1 (stereo not drawn) [Example 156, N-[(2E)-3-({[1,1′-biphenyl]-4-yl}(imino)oxo-λ^6-sulfanyl)prop-2-en-1-yl]-2-oxo-1,2,5,6,7,8-hexahydroquinoline-3-carboxamide] | ≤ 100 nM | – | ≤ 1000 nM
N=S(=O)(/C=C/CNC(=O)c1cc2c([nH]c1=O)CCCC2)c1ccc(N2CCOCC2)cc1 (stereo not drawn) [Example 160, N-[(2E)-3-{imino[4-(morpholin-4-yl)phenyl]oxo-λ^6-sulfanyl}prop-2-en-1-yl]-2-oxo-1,2,5,6,7,8-hexahydroquinoline-3-carboxamide] | ≤ 1000 nM | – | ≤ 1000 nM
N=S(=O)(/C=C/CNC(=O)c1cc2c([nH]c1=O)CCCC2)c1ccc(C2CCCCC2)cc1 (stereo not drawn) [Example 166, N-[(2E)-3-[(4-cyclohexylphenyl)(imino)oxo-λ^6-sulfanyl]prop-2-en-1-yl]-2-oxo-1,2,5,6,7,8-hexahydroquinoline-3-carboxamide] | ≤ 100 nM | – | ≤ 1000 nM
COc1ccc(S(=N)(=O)/C=C/CNC(=O)c2cc3cnccc3[nH]c2=O)cc1F (stereo not drawn) [Example 159, N-[(2E)-3-[(3-fluoro-4-methoxyphenyl)(imino)oxo-λ^6-sulfanyl]prop-2-en-1-yl]-2-oxo-1,2-dihydro-1,6-naphthyridine-3-carboxamide] | ≤ 1000 nM | – | ≤ 100000 nM
COc1ccc(S(=N)(=O)/C=C/CNC(=O)c2cc3c([nH]c2=O)CCN(C(=O)OC2CCC(F)(F)CC2)C3)cc1F (stereo not drawn) [Example 183, 4,4-difluorocyclohexyl 3-{[(2E)-3-[(3-fluoro-4-methoxyphenyl) (imino)oxo-λ^6-sulfanyl]prop-2-en-1-yl]carbamoyl}-2-oxo-1,2,5,6,7,8-hexahydro-1,6-naphthyridine-6-carboxylate] | ≤ 100 nM | – | ≤ 10000 nM
N=S(=O)(/C=C/CNC(=O)c1cc2c([nH]c1=O)CCCC2)c1ccc(C(F)(F)F)cc1 (stereo not drawn) [Example 154, N-[(2E)-3-[imino(oxo)[4-(trifluoromethyl)phenyl]-λ^6-sulfanyl]prop-2-en-1-yl]-2-oxo-1,2,5,6,7,8-hexahydroquinoline-3-carboxamide] | ≤ 100 nM | – | ≤ 1000 nM
COc1ccc(CN2CCc3[nH]c(=O)c(C(=O)NC/C=C/S(=N)(=O)c4ccc(OC)c(F)c4)cc3C2)cc1 (stereo not drawn) [Example 171, N-[(2E)-3-[(3-fluoro-4-methoxyphenyl)(imino)oxo-λ^6-sulfanyl]prop-2-en-1-yl]-6-[(4-methoxyphenyl)methyl]-2-oxo-1,2,5,6,7,8-hexahydro-1,6-naphthyridine-3-carboxamide] | ≤ 1000 nM | – | ≤ 1000 nM
COc1ccc(S(=N)(=O)/C=C/CNC(=O)c2cc3c([nH]c2=O)CCN(CC2CC2)C3)cc1F (stereo not drawn) [Example 185, 6-(cyclopropylmethyl)-N-[(2E)-3-[(3-fluoro-4-methoxyphenyl) (imino)oxo-λ^6-sulfanyl]prop-2-en-1-yl]-2-oxo-1,2,5,6,7,8-hexahydro-1,6-naphthyridine-3-carboxamide] | ≤ 10000 nM | – | ≤ 100000 nM
O=C(NC/C=C/S(=O)(=O)c1ccccc1)c1cc2c([nH]c1=O)CCN(C(=O)CC13CC4CC(CC(C4)C1)C3)C2 [Example 106, 6-[2-(adamantan-1-yl)acetyl]-N-[(2E)-3-(benzenesulfonyl)prop-2-en-1-yl]-2-oxo-1,2,5,6,7,8-hexahydro-1,6-naphthyridine-3-carboxamide] | ≤ 1000 nM | – | ≤ 10000 nM
O=C(NC/C=C/S(=O)(=O)c1ccccc1Cl)c1cc(-c2ccccc2)c[nH]c1=O [Example 129, N-[(2E)-3-(2-chlorobenzenesulfonyl)prop-2-en-1-yl]-2-oxo-5-phenyl-1,2-dihydropyridine-3-carboxamide] | ≤ 1000 nM | – | ≤ 10000 nM
N=S(=O)(/C=C/CNC(=O)c1cc2c([nH]c1=O)CCCC2)c1ccc(OC2CC2)cc1 (stereo not drawn) [Example 164, N-[(2E)-3-[(4-cyclopropoxyphenyl)(imino)oxo-λ^6-sulfanyl]prop-2-en-1-yl]-2-oxo-1,2,5,6,7,8-hexahydroquinoline-3-carboxamide] | ≤ 100 nM | – | ≤ 1000 nM
CN1CCCc2cc(S(=N)(=O)/C=C/CNC(=O)c3cc4c([nH]c3=O)CCCC4)ccc21 (stereo not drawn) [Example 177, N-[(2E)-3-[imino(1-methyl-1,2,3,4-tetrahydroquinolin-6-yl)oxo-A*-sulfanyl]prop-2-en-1-yl]-2-oxo-1,2,5,6,7,8-hexahydroquinoline-3-carboxamide] | ≤ 100 nM | – | ≤ 1000 nM
COc1ccc(S(=N)(=O)/C=C/CNC(=O)c2cc3c([nH]c2=O)CCC(F)C3)cc1F (stereo not drawn) [Example 172, 6-fluoro-N-[(2E)-3-[(3-fluoro-4-methoxyphenyl)(imino)oxo-λ^6-sulfanyl]prop-2-en-1-yl]-2-oxo-1,2,5,6,7,8-hexahydroquinoline-3-carboxamide] | ≤ 1000 nM | – | ≤ 10000 nM
